Tests used:
[1] = In vitro inhibitory activity against Factor Xa
[2] = Binding affinity of compound towards Factor Xa
[3] = Bioavailability in rat; format: ADME, organism-based; conditions: in vivo
[4] = Vz of compound was determined in rat; format: ADME, organism-based; conditions: in vivo, read-out: Vz
Rattus norvegicus = species on record: Rattus norvegicus; assay: In vitro anticoagulant activity of compound was determined in rat; format: functional
[5] = Plasma clearance of compound was determined in rat; format: ADME, organism-based
[6] = Half-life of compound was determined in rat; format: ADME; conditions: in vivo

Compound	IC50 [1] [nM]	further results
O=C(C[C@@H](NC(=O)c1ccc(-c2ccccc2CN2CCOCC2)cc1)C(=O)N1CCCCC1)Nc1ccc(Br)cn1	1.1	
CC(=O)NC(CC(=O)Nc1ccc(Br)cn1)C(=O)Nc1ccc(-c2ccccc2S(N)(=O)=O)cc1 (stereo not drawn)	182	
CN(C)Cc1ccccc1-c1ccc(C(=O)N[C@H](CC(=O)Nc2ccc(Cl)cn2)C(=O)N2CCCCC2)cc1	1.7	Ki [2]: 0.4 nM; bioavailability [3]: 25.9%; Vd [4]: 14 L/kg; 2X PT (Rattus norvegicus): 1.74 µM; TG 2X lag (Rattus norvegicus): 1 µM; clearance [5]: 178 mL/min/kg; half-life [6]: 70.8 min
O=C(C[C@H](NC(=O)c1ccc(-c2ccccc2CN2CCOCC2)cc1)C(=O)N1CCCCC1)Nc1ccc(Br)cn1	290	
NS(=O)(=O)c1ccccc1-c1ccc(C(=O)NCC(NC(=O)Nc2ccccc2)C(=O)Nc2ccc(Br)cn2)cc1 (stereo not drawn)	8500	
O=C(C[C@H](NC(=O)c1ccc(-c2ccccc2CN2CCCC2)cc1)C(=O)N1CCCCC1)Nc1ccc(Cl)cn1	2.7	
NS(=O)(=O)c1ccccc1-c1ccc(NC(=O)C(CC(=O)Nc2ccc(Br)cn2)NC(=O)c2ccncc2)cc1 (stereo not drawn)	43.8	
NC(CNC(=O)c1ccc(-c2ccccc2S(N)(=O)=O)cc1)C(=O)Nc1ccc(Br)cn1 (stereo not drawn)	1650	
O=C(C[C@H](NC(=O)c1ccc(-c2ccccc2CN2CCCC2)cc1)C(=O)N1CCCCC1)Nc1ccc(Br)cn1	230	
CNCCNC(=O)C(CC(=O)Nc1ccc(Br)cn1)NC(=O)c1ccc(-c2ccccc2S(N)(=O)=O)cc1 (stereo not drawn)	43.4	
NS(=O)(=O)c1ccccc1-c1ccc(NC(=O)CCC(=O)Nc2ccc(Br)cn2)cc1	20	
NS(=O)(=O)c1ccccc1-c1ccc(C(=O)NC(CC(=O)Nc2ccc(Br)cn2)C(=O)N2CCCC2)cc1 (stereo not drawn)	14.5	
CN(C)C(=N)c1ccc(C(=O)N[C@H](CC(=O)Nc2ccc(Br)cn2)C(=O)N2CCCCC2)cc1	4.6	
NS(=O)(=O)c1ccccc1-c1ccc(NC(=O)CCNC(=O)c2ccc(Cl)s2)cc1	130	
NS(=O)(=O)c1ccccc1-c1ccc(C(=O)NCCNC(=O)c2ccc(Cl)s2)cc1	5.7	
NS(=O)(=O)c1ccccc1-c1ccc(C(=O)NC(CC(=O)Nc2ccc(Br)cn2)C(=O)N2CCCCC2)cc1 (stereo not drawn)	7.6	Ki [2]: 1.36 nM; bioavailability [3]: 2.7%; Vd [4]: 5.9 L/kg; 2X PT (Rattus norvegicus): 7 µM; TG 2X lag (Rattus norvegicus): 4.6 µM; clearance [5]: 50.6 mL/min/kg; half-life [6]: 81 min
NS(=O)(=O)c1ccccc1-c1ccc(C(=O)NC(CC(=O)Nc2ccc(Br)cn2)C(=O)NC2CCCC2)cc1 (stereo not drawn)	15.9	
COCCN(C)Cc1ccccc1-c1ccc(C(=O)N[C@H](CC(=O)Nc2ccc(Br)cn2)C(=O)N2CCCCC2)cc1	1.3	
O=C(C[C@H](NC(=O)c1ccc(-c2ccccc2CN2CCOCC2)cc1)C(=O)N1CCCCC1)Nc1ccc(Cl)cn1	3.6	
COc1ccc(C(=O)NCCNC(=O)c2ccc(-c3ccccc3S(N)(=O)=O)cc2)cc1	2600	
NS(=O)(=O)c1ccccc1-c1ccc(C(=O)NCCNS(=O)(=O)c2cc3cc(Cl)ccc3[nH]2)cc1	1900	
NS(=O)(=O)c1ccccc1-c1ccc(NC(=O)CCC(=O)Nc2ccc(Cl)cc2)cc1	12	
NS(=O)(=O)c1ccccc1-c1ccc(C(=O)NCCNS(=O)(=O)c2ccc(Cl)cc2)cc1	> 10000	
NS(=O)(=O)c1ccccc1-c1ccc(NC(=O)C(CC(=O)Nc2ccc(Br)cn2)NC(=O)c2cccnc2)cc1 (stereo not drawn)	47.2	
O=C(C[C@@H](NC(=O)c1ccc(-c2ccccc2CN2CCCC2)cc1)C(=O)N1CCCCC1)Nc1ccc(Cl)cn1	2	

Compound	IC50 [1] [nM]	further results
CN1CCN=C1c1ccc(C(=O)N[C@H](CC(=O)Nc2ccc(Cl)cn2)C(=O)N2CCCCC2)cc1	26	
NS(=O)(=O)c1ccccc1-c1ccc(C(=O)NCCNS(=O)(=O)c2cc3ccc(Cl)cc3s2)cc1	1090	
CN(C)Cc1ccccc1-c1ccc(C(=O)N[C@H](CC(=O)Nc2ccc(Br)cn2)C(=O)N2CCCCC2)cc1	0.65	Ki [2]: 0.14 nM; 2X PT (Rattus norvegicus): 1.98 µM; TG 2X lag (Rattus norvegicus): 0.42 µM
COCCN(C)Cc1ccccc1-c1ccc(C(=O)N[C@@H](CC(=O)Nc2ccc(Cl)cn2)C(=O)N2CCCCC2)cc1	9.3	
NS(=O)(=O)c1ccccc1-c1ccc(C(=O)NCCNC(=O)c2cccc(Cl)c2)cc1	1500	
NS(=O)(=O)c1ccccc1-c1ccc(C(=O)NCCC(=O)Nc2ccc(Br)cn2)cc1	12	Ki [2]: 7.55 nM; bioavailability [3]: 2.67%; Vd [4]: 5.4 L/kg; TG 2X lag (Rattus norvegicus): 14 µM; clearance [5]: 35 mL/min/kg; half-life [6]: 106 min
NS(=O)(=O)c1ccccc1-c1ccc(C(=O)NC(CC(=O)Nc2ccc(Br)cn2)C(=O)N2CCOCC2)cc1 (stereo not drawn)	22.9	
CCCCOC(=O)NC(CNC(=O)c1ccc(-c2ccccc2S(N)(=O)=O)cc1)C(=O)Nc1ccc(Br)cn1 (stereo not drawn)	1250	
NS(=O)(=O)c1ccccc1-c1ccc(NC(=O)C(CC(=O)Nc2ccc(Br)cn2)NC(=O)C2CCNCC2)cc1 (stereo not drawn)	194	
NS(=O)(=O)c1ccccc1-c1ccc(C(=O)NCCNS(=O)(=O)c2ccc3cc(Br)ccc3c2)cc1	9300	
NS(=O)(=O)c1ccccc1-c1ccc(NC(=O)C(CC(=O)Nc2ccc(Br)cn2)NC(=O)C2CCCNC2)cc1 (stereo not drawn)	442	
CN(C)Cc1nccn1-c1ccc(C(=O)N[C@H](CC(=O)Nc2ccc(Br)cn2)C(=O)N2CCCCC2)cc1	3.1	
COCCN(C)Cc1ccccc1-c1ccc(C(=O)N[C@H](CC(=O)Nc2ccc(Cl)cn2)C(=O)N2CCCCC2)cc1	4.8	
NS(=O)(=O)c1ccccc1-c1ccc(NC(=O)C(CC(=O)Nc2ccc(Br)cn2)NC(=O)Nc2ccccc2)cc1 (stereo not drawn)	37	
CN(C)Cc1nccn1-c1ccc(C(=O)N[C@H](CC(=O)Nc2ccc(Cl)cn2)C(=O)N2CCCCC2)cc1	7.6	
CCC(=O)NC(CC(=O)Nc1ccc(Br)cn1)C(=O)Nc1ccc(-c2ccccc2S(N)(=O)=O)cc1 (stereo not drawn)	36.5	
NS(=O)(=O)c1ccccc1-c1ccc(NC(=O)C(CC(=O)Nc2ccc(Br)cn2)NC(=O)C(F)(F)F)cc1 (stereo not drawn)	200	
CNC(=O)C(CC(=O)Nc1ccc(Br)cn1)NC(=O)c1ccc(-c2ccccc2S(N)(=O)=O)cc1 (stereo not drawn)	17.4	
CN(C)C(=N)c1ccc(C(=O)N[C@@H](CC(=O)Nc2ccc(Cl)cn2)C(=O)N2CCCCC2)cc1	24	
CCOC(=O)CNC(=O)C(CC(=O)Nc1ccc(Br)cn1)NC(=O)c1ccc(-c2ccccc2S(N)(=O)=O)cc1 (stereo not drawn)	3.3	
CN(C)CCN(C)C(=O)C(CC(=O)Nc1ccc(Br)cn1)NC(=O)c1ccc(-c2ccccc2S(N)(=O)=O)cc1 (stereo not drawn)	45.5	
NS(=O)(=O)c1ccccc1-c1ccc(NC(=O)/C=C/C(=O)Nc2ccc(Cl)cc2)cc1 (stereo in doubt; cis)	67	
COCCN(C)Cc1ccccc1-c1ccc(C(=O)N[C@@H](CC(=O)Nc2ccc(Br)cn2)C(=O)N2CCCCC2)cc1	940	
NCC(=O)NC(CC(=O)Nc1ccc(Br)cn1)C(=O)Nc1ccc(-c2ccccc2S(N)(=O)=O)cc1 (stereo not drawn)	150	
NS(=O)(=O)c1ccccc1-c1ccc(NC(=O)/C=C/C(=O)Nc2ccc(Cl)cc2)cc1 (stereo in doubt; trans)	> 10000	

Compound	IC50 [1] [nM]	further results
CN1CCN(C(=O)C(CC(=O)Nc2ccc(Br)cn2)NC(=O)c2ccc(-c3ccccc3S(N)(=O)=O)cc2)CC1 (stereo not drawn)	26.5	
NS(=O)(=O)c1ccccc1-c1ccc(C(=O)NC(CC(=O)Nc2ccc(Br)cn2)C(=O)Nc2ccccc2)cc1 (stereo not drawn)	26.5	
O=C(C[C@@H](NC(=O)c1ccc(-c2ccccc2CN2CCCC2)cc1)C(=O)N1CCCCC1)Nc1ccc(Br)cn1	1	
CN(C)Cc1nccn1-c1ccc(C(=O)N[C@@H](CC(=O)Nc2ccc(Br)cn2)C(=O)N2CCCCC2)cc1	330	
NS(=O)(=O)c1ccccc1-c1ccc(C(=O)NCCNC(=O)c2ccc(Br)cc2)cc1	960	
CC(=O)NC(CNC(=O)c1ccc(-c2ccccc2S(N)(=O)=O)cc1)C(=O)Nc1ccc(Br)cn1 (stereo not drawn)	805	
CN(C)CCNC(=O)C(CC(=O)Nc1ccc(Br)cn1)NC(=O)c1ccc(-c2ccccc2S(N)(=O)=O)cc1 (stereo not drawn)	49.7	
CN(C)Cc1nccn1-c1ccc(C(=O)N[C@@H](CC(=O)Nc2ccc(Cl)cn2)C(=O)N2CCCCC2)cc1	9.2	
NS(=O)(=O)c1ccccc1-c1ccc(C(=O)NCCNC(=O)c2cc3cc(Cl)ccc3[nH]2)cc1	760	
NS(=O)(=O)c1ccccc1-c1ccc(NC(=O)CCC(=O)Nc2ccc(Cl)cn2)cc1	37	
CN1CCN=C1c1ccc(C(=O)N[C@H](CC(=O)Nc2ccc(Br)cn2)C(=O)N2CCCCC2)cc1	8.2	
NS(=O)(=O)c1ccccc1-c1ccc(C(=O)NC(CC(=O)Nc2ccc(Br)cn2)C(=O)N2CCCCCC2)cc1 (stereo not drawn)	4.98	
COC(=O)C(CC(=O)Nc1ccc(Br)cn1)NC(=O)c1ccc(-c2ccccc2S(N)(=O)=O)cc1 (stereo not drawn)	24.7	
NS(=O)(=O)c1ccccc1-c1ccc(C(=O)NC(CC(=O)Nc2ccc(Br)cn2)C(=O)N2CCS(=O)(=O)CC2)cc1 (stereo not drawn)	40.1	
CN(C)CC(=O)NC(CC(=O)Nc1ccc(Br)cn1)C(=O)Nc1ccc(-c2ccccc2S(N)(=O)=O)cc1 (stereo not drawn)	215	
NS(=O)(=O)c1ccccc1-c1ccc(C(=O)NCCNC(=O)c2ccccc2)cc1	> 10000	
CS(=O)(=O)NC(CNC(=O)c1ccc(-c2ccccc2S(N)(=O)=O)cc1)C(=O)Nc1ccc(Br)cn1 (stereo not drawn)	1250	
NC(CC(=O)Nc1ccc(Br)cn1)C(=O)Nc1ccc(-c2ccccc2S(N)(=O)=O)cc1 (stereo not drawn)	145	
CN1CCN=C1c1ccc(C(=O)N[C@@H](CC(=O)Nc2ccc(Cl)cn2)C(=O)N2CCCCC2)cc1	28	
NS(=O)(=O)c1ccccc1-c1ccc(C(=O)NC(CC(=O)Nc2ccc(Br)cn2)C(=O)N2CCNCC2)cc1 (stereo not drawn)	90.9	
O=C(C[C@@H](NC(=O)c1ccc(-c2ccccc2CN2CCOCC2)cc1)C(=O)N1CCCCC1)Nc1ccc(Cl)cn1	1.8	
CN(C)C(=N)c1ccc(C(=O)N[C@H](CC(=O)Nc2ccc(Cl)cn2)C(=O)N2CCCCC2)cc1	12	
NS(=O)(=O)c1ccccc1-c1ccc(C(=O)NCCC(=O)Nc2ccc(Cl)cc2)cc1	17	
NS(=O)(=O)c1ccccc1-c1ccc(NC(=O)CCC(=O)Nc2ccc(Br)cc2)cc1	65	
NS(=O)(=O)c1ccccc1-c1ccc(C(=O)NCCC(=O)Nc2ccc(Br)cc2)cc1	29	

From ChEMBL document CHEMBL1137135 (Bioorg Med Chem Lett, 2004)
